US20200102264A1, “MARMELIN ANALOGS AND METHODS OF USE IN CANCER TREATMENT” (THE UNIVERSITY OF KANSAS, priority 2014, published 2020)

Key:
Type in all cases: cell-based
[1] = system: HCT116 colon cancer cells; experiment: hexoseaminidase cell proliferation assay, HCT116
From the text: (§1) Using hexoseaminidase assay, we determined the effect of the compounds on cell proliferation. […]
(§2) Using hexoseaminidase assay, we determined the effect of the compounds on cell proliferation. […] […] […] Overall, the analogs can be used as chemotherapeutic agents against colon and pancreatic cancer.

SW480 colon cancer cells = experiment: hexoseaminidase cell proliferation assay, SW480
From the text: as §1, §2

[2] = system: MiaPaCa-2 pancreatic cancer cells; experiment: hexoseaminidase cell proliferation assay, MiaPaCa-2
Description: (§3) Using hexoseaminidase assay, we determined the effect of the compounds on cell proliferation. […] The IC50 value at 48 hours is below 10 μM in all the cancer cell lines.
(§4) Using hexoseaminidase assay, we determined the effect of the compounds on cell proliferation. […] The MRL16 IC50 value at 48 hours is below 0.3 μM in Colon cancer cell lines. […] Overall, the analogs can be used as chemotherapeutic agents against colon and pancreatic cancer.

[3] = system: PanC-1 pancreatic cancer cells; experiment: hexoseaminidase cell proliferation assay, PanC-1
Description: as §3, §4

HCT116 cells = experiment: cell cycle analysis, HCT116; conditions: HCT116, Table 3
SW480 cells = experiment: cell cycle analysis, SW480; conditions: SW480, Table 3
Description: The analogs were tested to determine the ability induce death of colon cancer cells.

[4] = Homo sapiens, HCT-116, HCT116, 24 h
[5] = Homo sapiens, HCT-116, HCT116, 48 h
[6] = Homo sapiens, HCT-116, HCT116, 72 h
[7] = Homo sapiens, MIA PaCa-2, MiaPaCa-2, 24 h
[8] = Homo sapiens, MIA PaCa-2, MiaPaCa-2, 48 h
[9] = Homo sapiens, MIA PaCa-2, MiaPaCa-2, 72 h

| IC50 [1, 4] [µM] | IC50 [1, 5] [µM] | IC50 [1, 6] [µM] | IC50 (SW480 colon cancer cells; Homo sapiens, SW480, 24 h) [µM] | IC50 (SW480 colon cancer cells; Homo sapiens, SW480, 48 h) [µM] | IC50 (SW480 colon cancer cells; Homo sapiens, SW480, 72 h) [µM] | IC50 [2, 7] [µM] | IC50 [2, 8] [µM] | IC50 ([1]; HCT116, 24 h) [µM] | IC50 ([1]; HCT116, 48 h) [µM] | IC50 ([1]; HCT116, 72 h) [µM] | IC50 (SW480 colon cancer cells; SW480, 24 h) [µM] | IC50 (SW480 colon cancer cells; SW480, 48 h) [µM] | IC50 (SW480 colon cancer cells; SW480, 72 h) [µM] | IC50 ([2]; MiaPaCa-2, 24 h) [µM] | IC50 ([2]; MiaPaCa-2, 48 h) [µM] | IC50 ([2]; MiaPaCa-2, 72 h) [µM] | IC50 ([3]; PanC-1, 24 h) [µM] | IC50 ([3]; PanC-1, 48 h) [µM] | IC50 ([3]; PanC-1, 72 h) [µM] | Compound | further results |
| --- | --- | --- | --- | --- | --- | --- | --- | --- | --- | --- | --- | --- | --- | --- | --- | --- | --- | --- | --- | --- | --- |
|  |  |  |  |  |  |  |  | > 50 | > 50 | > 50 | > 50 | > 50 | > 50 | > 50 | > 50 | > 50 | > 50 | > 50 | > 50 | O=C(N/N=C/c1ccc(O)cc1)c1cc2ccccc2cc1O [MRL MHB] |  |
|  |  |  |  |  |  |  |  | > 50 | > 50 | > 50 | > 50 | > 50 | > 50 | > 50 | > 50 | > 50 | > 50 | > 50 | > 50 | O=C(N/N=C/c1ccc(F)c(F)c1F)c1cc2ccccc2cc1O [MRL TFB] |  |
|  |  |  |  |  |  |  |  | > 50 | 25 | 22 | > 50 | 20 | 18 | > 50 | 25 | 17 | > 50 |  | 20 | O=C(N/N=C/c1ccc(F)c(F)c1)c1cc2ccccc2cc1O [MRL DFB] |  |
|  |  |  |  |  |  |  |  | > 50 | > 50 | > 50 | > 50 | > 50 | > 50 | > 50 | > 50 | > 50 | > 50 | > 50 | > 50 | O=C(N/N=C/c1ccc(F)cc1)c1cc2ccccc2cc1O [MRL MFB] |  |
|  |  |  |  |  |  |  |  |  | 35 | 35 |  | 40 | 35 | > 50 | 40 | 35 | > 50 | 40 | 40 | O=C(N/N=C/c1cc(F)cc(F)c1)c1cc2ccccc2cc1O [MRL RFB] |  |

Continued, compound first:

| Compound | IC50 [1, 4] [µM] | IC50 [1, 5] [µM] | IC50 [1, 6] [µM] | IC50 (SW480 colon cancer cells; Homo sapiens, SW480, 24 h) [µM] | IC50 (SW480 colon cancer cells; Homo sapiens, SW480, 48 h) [µM] | IC50 (SW480 colon cancer cells; Homo sapiens, SW480, 72 h) [µM] | IC50 [2, 7] [µM] | IC50 [2, 8] [µM] | IC50 ([1]; HCT116, 24 h) [µM] | IC50 ([1]; HCT116, 48 h) [µM] | IC50 ([1]; HCT116, 72 h) [µM] | IC50 (SW480 colon cancer cells; SW480, 24 h) [µM] | IC50 (SW480 colon cancer cells; SW480, 48 h) [µM] | IC50 (SW480 colon cancer cells; SW480, 72 h) [µM] | IC50 ([2]; MiaPaCa-2, 24 h) [µM] | IC50 ([2]; MiaPaCa-2, 48 h) [µM] | IC50 ([2]; MiaPaCa-2, 72 h) [µM] | IC50 ([3]; PanC-1, 24 h) [µM] | IC50 ([3]; PanC-1, 48 h) [µM] | IC50 ([3]; PanC-1, 72 h) [µM] | further results |
| --- | --- | --- | --- | --- | --- | --- | --- | --- | --- | --- | --- | --- | --- | --- | --- | --- | --- | --- | --- | --- | --- |
| CC(=O)c1ccc2ccccc2c1O [MRL15] | > 10 | > 10 | > 10 | > 10 | > 10 | > 10 | > 10 | > 10 |  |  |  |  |  |  |  |  |  |  |  |  | IC50 [2, 9]: > 10 µM; IC50 ([3]; Homo sapiens, PANC-1, 24 h): > 10 µM; IC50 ([3]; Homo sapiens, PANC-1, 48 h): > 10 µM; IC50 ([3]; Homo sapiens, PANC-1, 72 h): > 10 µM |
| O=C(N/N=C/c1coc2ccccc2c1=O)c1cc2ccccc2cc1O [CMR] |  |  |  |  |  |  |  |  | > 50 | > 50 | > 50 | > 50 | > 50 | > 50 | > 50 | > 50 | > 50 | > 50 | > 50 | > 50 |  |
| O=C(N/N=C/c1ccc2ccccc2n1)c1cc2ccccc2cc1O [QNL] | > 50 | > 50 | 20 | > 50 | > 50 | > 50 | > 50 | > 50 |  |  |  |  |  |  |  |  |  |  |  |  | IC50 [2, 9]: 25 µM; IC50 ([3]; Homo sapiens, PANC-1, 24 h): > 50 µM; IC50 ([3]; Homo sapiens, PANC-1, 48 h): > 50 µM; IC50 ([3]; Homo sapiens, PANC-1, 72 h): > 50 µM |
| OC[C@H]1O[C@@H]2O[C@H]3[C@H](O)[C@@H](O)[C@@H](O[C@H]4[C@H](O)[C@@H](O)[C@@H](O[C@H]5[C@H](O)[C@@H](O)[C@@H](O[C@H]6[C@H](O)[C@@H](O)[C@@H](O[C@H]7[C@H](O)[C@@H](O)[C@@H](O[C@H]8[C@H](O)[C@@H](O)[C@@H](O[C@H]1[C@H](O)[C@H]2O)O[C@@H]8CO)O[C@@H]7CO)O[C@@H]6CO)O[C@@H]5CO)O[C@@H]4CO)O[C@@H]3CO [CD, β-cyclodextrin] | > 50 | > 50 | > 50 | > 50 | > 50 | > 50 | > 50 | > 50 |  |  |  |  |  |  |  |  |  |  |  |  | IC50 [2, 9]: > 50 µM; IC50 ([3]; Homo sapiens, PANC-1, 24 h): > 50 µM; IC50 ([3]; Homo sapiens, PANC-1, 48 h): > 50 µM; IC50 ([3]; Homo sapiens, PANC-1, 72 h): > 50 µM; G0/G1 (%) (HCT116 cells): 43.9%; G2M (%) (HCT116 cells): 10.9%; S (%) (HCT116 cells): 12.3%; SubG0 Dead Cells (%) (HCT116 cells): 31.0%; G0/G1 (%) (SW480 cells): 61.1%; G2M (%) (SW480 cells): 19.8%; S (%) (SW480 cells): 14.9%; SubG0 Dead Cells (%) (SW480 cells): 3.6% |
| C/C(=N\NC(=O)Cc1cc2ccccc2[nH]1)c1ccc2ccccc2c1O [MRL22] | > 10 | > 10 | > 10 | > 10 | > 10 | > 10 | > 10 | > 10 |  |  |  |  |  |  |  |  |  |  |  |  | IC50 [2, 9]: > 10 µM; IC50 ([3]; Homo sapiens, PANC-1, 24 h): > 10 µM; IC50 ([3]; Homo sapiens, PANC-1, 48 h): > 10 µM; IC50 ([3]; Homo sapiens, PANC-1, 72 h): > 10 µM |
| C/C(=N\NC(=O)c1cc2ccccc2cc1O)c1cc2ccccc2oc1=O [COU] | > 50 | > 50 | > 50 | > 50 | > 50 | > 50 | > 50 | > 50 |  |  |  |  |  |  |  |  |  |  |  |  | IC50 [2, 9]: > 50 µM; IC50 ([3]; Homo sapiens, PANC-1, 24 h): > 50 µM; IC50 ([3]; Homo sapiens, PANC-1, 48 h): > 50 µM; IC50 ([3]; Homo sapiens, PANC-1, 72 h): > 50 µM |
| NNC(=O)c1cc2ccccc2cc1O [MRL BDM] |  |  |  |  |  |  |  |  | > 50 | > 50 | > 50 | > 50 | > 50 | > 50 | > 50 | > 50 | > 50 | > 50 | > 50 | > 50 |  |
